Molecular target: T1, […]F508-CFTR (Homo sapiens, UniProt P13569, DEL508-508)
T1 construct: expressed in transfected cells
Assay: Assay results of Table 3: ΔF508-CFTR modulation, membrane potential optical assay (assay format not stated)
Type: cell-based
Conditions: NIH3T3 mouse fibroblasts stably expressing […]F508-CFTR (optical assays); for Efficacy: efficacy range; for EC50: potency range
In short: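 Two VIPR II FRET voltage-dye formats in ΔF508-CFTR NIH3T3 cells yield EC50 and efficacy. Potentiator mode: 27° C.-corrected cells get compound in Cl⁻-free medium, forskolin 2-10 μM after 22 s (final Cl⁻ 28 mM). Corrector mode: compound 16 h at 37° C., activation with forskolin 10 μM plus genistein 20 μM.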

T1 sequence (P13569 with tags, fused parts or gaps DEL508-508): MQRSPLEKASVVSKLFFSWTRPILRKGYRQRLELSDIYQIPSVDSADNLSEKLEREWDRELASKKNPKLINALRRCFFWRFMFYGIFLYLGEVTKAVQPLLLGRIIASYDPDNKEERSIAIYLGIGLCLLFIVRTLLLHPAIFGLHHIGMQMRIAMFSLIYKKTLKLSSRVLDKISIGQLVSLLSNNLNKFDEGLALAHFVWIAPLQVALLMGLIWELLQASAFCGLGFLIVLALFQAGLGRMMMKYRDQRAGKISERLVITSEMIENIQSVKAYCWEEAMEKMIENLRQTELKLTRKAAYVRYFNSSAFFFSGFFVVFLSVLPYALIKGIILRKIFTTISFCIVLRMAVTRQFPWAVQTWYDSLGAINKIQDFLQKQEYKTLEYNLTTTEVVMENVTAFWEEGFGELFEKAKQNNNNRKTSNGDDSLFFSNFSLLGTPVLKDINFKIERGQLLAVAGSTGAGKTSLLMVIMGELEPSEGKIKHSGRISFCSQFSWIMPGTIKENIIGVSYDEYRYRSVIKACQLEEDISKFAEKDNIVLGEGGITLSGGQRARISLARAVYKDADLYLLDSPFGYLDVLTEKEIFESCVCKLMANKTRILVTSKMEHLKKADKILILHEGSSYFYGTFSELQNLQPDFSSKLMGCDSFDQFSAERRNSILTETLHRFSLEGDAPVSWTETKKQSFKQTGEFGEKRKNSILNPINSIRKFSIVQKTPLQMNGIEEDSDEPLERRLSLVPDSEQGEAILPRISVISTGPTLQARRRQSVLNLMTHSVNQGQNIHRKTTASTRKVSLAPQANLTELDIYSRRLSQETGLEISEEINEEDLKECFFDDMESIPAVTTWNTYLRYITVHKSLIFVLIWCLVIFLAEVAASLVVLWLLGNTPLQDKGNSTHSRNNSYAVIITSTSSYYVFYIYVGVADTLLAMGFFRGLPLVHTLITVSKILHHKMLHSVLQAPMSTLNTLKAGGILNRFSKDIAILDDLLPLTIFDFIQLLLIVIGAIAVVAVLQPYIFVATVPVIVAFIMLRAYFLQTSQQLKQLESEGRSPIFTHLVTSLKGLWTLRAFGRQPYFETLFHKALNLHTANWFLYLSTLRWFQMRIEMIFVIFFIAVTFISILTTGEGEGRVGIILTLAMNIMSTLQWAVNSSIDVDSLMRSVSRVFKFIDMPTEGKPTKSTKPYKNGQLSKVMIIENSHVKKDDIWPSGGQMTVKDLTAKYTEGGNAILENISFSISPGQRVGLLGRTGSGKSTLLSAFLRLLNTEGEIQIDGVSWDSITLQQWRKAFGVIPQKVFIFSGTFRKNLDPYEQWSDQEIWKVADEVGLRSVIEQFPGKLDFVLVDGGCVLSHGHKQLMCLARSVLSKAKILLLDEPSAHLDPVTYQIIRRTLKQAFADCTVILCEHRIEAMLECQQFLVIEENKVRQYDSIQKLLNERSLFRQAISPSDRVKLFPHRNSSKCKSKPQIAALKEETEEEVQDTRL

SMILES | Efficacy | EC50
COc1ccc(C2(CNc3nc(C(N)=O)cc(-c4ccccc4)n3)CC2)cc1OC [Compound 132] | +++ (+++ corresponds to Efficacy greater than 100) | > 5 µM
CCN(CC)c1nc(C(N)=O)cc(-c2cc(F)ccc2OC)n1 [Compound 133] | ++ (++ corresponds to Efficacy between 100 and 50) | < 1 µM
CC1CN(c2nc(C(N)=O)cc(-c3ccccc3)n2)CC(C)O1 (stereo not shown) [Compound 134] | ++ (++ corresponds to Efficacy between 100 and 50) | > 5 µM
COc1ccccc1-c1cc(C(N)=O)nc(N2CC=CCC2)n1 [Compound 135] | ++ (++ corresponds to Efficacy between 100 and 50) | > 5 µM
NC(=O)c1cc(-c2ccccc2)nc(CC2CCCCC2)n1 [Compound 136] | ++ (++ corresponds to Efficacy between 100 and 50) | > 5 µM
COc1ccc(F)cc1-c1cc(C(N)=O)nc(N2CCCCC2)n1 [Compound 137] | ++ (++ corresponds to Efficacy between 100 and 50) | 1 to 5 µM
CCNc1nc(C(N)=O)cc(-c2cccc(OC)c2)n1 [Compound 138] | ++ (++ corresponds to Efficacy between 100 and 50) | > 5 µM
NC(=O)c1cc(-c2ccccc2)nc(N2CCC(n3c(=O)[nH]c4ccccc43)CC2)n1 [Compound 139] | ++ (++ corresponds to Efficacy between 100 and 50) | > 5 µM
NC(=O)c1cc(-c2ccc(Cl)c(Cl)c2)nc(N2CCCCC2)n1 [Compound 140] | ++ (++ corresponds to Efficacy between 100 and 50) | 1 to 5 µM
CCN(CC)C(=O)c1cc(-c2ccccc2)nc(N(CC)CC)n1 [Compound 141] | ++ (++ corresponds to Efficacy between 100 and 50) | 1 to 5 µM
COc1ccc(-c2cc(C(N)=O)nc(N3CCCCC3)n2)cc1 [Compound 142] | ++ (++ corresponds to Efficacy between 100 and 50) | > 5 µM
NC(=O)c1cc(-c2ccccc2)nc(N2CCC(O)(Cc3ccccc3)CC2)n1 [Compound 143] | + (+ corresponds to Efficacy less than 50) | > 5 µM
NC(=O)c1cc(-c2csc3ccccc23)nc(N2CCCCC2)n1 [Compound 144] | ++ (++ corresponds to Efficacy between 100 and 50) | > 5 µM
C#CCNc1nc(C(N)=O)cc(-c2cccc(OC)c2)n1 [Compound 145] | ++ (++ corresponds to Efficacy between 100 and 50) | > 5 µM
NC(=O)c1cc(-c2ccccc2Oc2ccccc2)nc(N2CCCCC2)n1 [Compound 146] | +++ (+++ corresponds to Efficacy greater than 100) | 1 to 5 µM
CCN(CC)c1nc(C(N)=O)cc(-c2ccc(Cl)cc2)n1 [Compound 147] | ++ (++ corresponds to Efficacy between 100 and 50) | < 1 µM
NC(=O)c1cc(-c2ccccc2)nc(N2CCC3CCCCC3C2)n1 (stereo not shown) [Compound 148] | ++ (++ corresponds to Efficacy between 100 and 50) | 1 to 5 µM
CC1CCCN(c2nc(C(N)=O)cc(-c3ccccc3)n2)C1 (stereo not shown) [Compound 149] | ++ (++ corresponds to Efficacy between 100 and 50) | > 5 µM
CCCN(CC1CC1)c1nc(C(=O)N(C)C)cc(-c2ccccc2)n1 [Compound 150] | ++ (++ corresponds to Efficacy between 100 and 50) | 1 to 5 µM

SMILES | Efficacy | EC50
CCN(CC)c1nc(C(N)=O)cc(-c2cc(F)cc(F)c2)n1 [Compound 151] | +++ (+++ corresponds to Efficacy greater than 100) | 1 to 5 µM
NC(=O)c1cc(-c2ccccc2OC(F)(F)F)nc(N2CCCCC2)n1 [Compound 152] | ++ (++ corresponds to Efficacy between 100 and 50) | 1 to 5 µM
CNC(=O)c1cc(-c2ccccc2)nc(N2CC=CCC2)n1 [Compound 153] | ++ (++ corresponds to Efficacy between 100 and 50) | > 5 µM
C#CCNc1nc(C(N)=O)cc(-c2ccccc2)n1 [Compound 154] | + (+ corresponds to Efficacy less than 50) | > 5 µM
CCN(CC)c1nc(C(N)=O)cc(-c2ccc(S(=O)(=O)CC)cc2)n1 [Compound 155] | ++ (++ corresponds to Efficacy between 100 and 50) | > 5 µM
CCN(CCO)c1nc(C(=O)NC)cc(-c2ccccc2)n1 [Compound 156] | + (+ corresponds to Efficacy less than 50) | > 5 µM
CCN(CC)c1nc(C(=O)N2CCCCC2)cc(-c2ccccc2)n1 [Compound 157] | + (+ corresponds to Efficacy less than 50) | > 5 µM
CCN(CC)c1nc(C(N)=O)cc(-c2cccc(CO)c2)n1 [Compound 158] | ++ (++ corresponds to Efficacy between 100 and 50) | > 5 µM
CC(C)CN(C)c1nc(C(N)=O)cc(-c2ccccc2)n1 [Compound 159] | +++ (+++ corresponds to Efficacy greater than 100) | 1 to 5 µM
CCN(CC)c1nc(C(N)=O)cc(-c2cccc(F)c2)n1 [Compound 160] | ++ (++ corresponds to Efficacy between 100 and 50) | > 5 µM
COc1cccc(-c2cc(C(N)=O)nc(N3CCCCCC3)n2)c1 [Compound 161] | +++ (+++ corresponds to Efficacy greater than 100) | 1 to 5 µM
CN(Cc1ccco1)c1nc(C(N)=O)cc(-c2ccccc2)n1 [Compound 162] | ++ (++ corresponds to Efficacy between 100 and 50) | 1 to 5 µM
CCN(CC)c1nc(C(N)=O)cc(-c2cc(F)ccc2F)n1 [Compound 163] | ++ (++ corresponds to Efficacy between 100 and 50) | < 1 µM
CN(Cc1ccccc1)c1nc(C(N)=O)cc(-c2ccccc2)n1 [Compound 164] | ++ (++ corresponds to Efficacy between 100 and 50) | 1 to 5 µM
CC1CCN(c2nc(C(N)=O)cc(-c3ccccc3)n2)CC1 [Compound 165] | +++ (+++ corresponds to Efficacy greater than 100) | > 5 µM
CC(C)c1ccc(-c2cc(C(N)=O)nc(N3CCCCC3)n2)cc1 [Compound 166] | + (+ corresponds to Efficacy less than 50) | > 5 µM
NC(=O)c1cc(-c2ccccc2)nc(N2CCOCC2)n1 [Compound 167] | ++ (++ corresponds to Efficacy between 100 and 50) | > 5 µM
COc1cccc(-c2cc(C(N)=O)nc(N3CCCCC3)n2)c1 [Compound 168] | +++ (+++ corresponds to Efficacy greater than 100) | > 5 µM
NC(=O)c1cc(-c2ccccc2)nc(N2CCSC2)n1 [Compound 169] | +++ (+++ corresponds to Efficacy greater than 100) | > 5 µM

SMILES | Efficacy | EC50
NC(=O)c1cc(-c2cc3ccccc3s2)nc(N2CCCCC2)n1 [Compound 170] | + (+ corresponds to Efficacy less than 50) | 1 to 5 µM
CCCCN(CCCC)c1nc(C(N)=O)cc(-c2ccccc2)n1 [Compound 171] | ++ (++ corresponds to Efficacy between 100 and 50) | < 1 µM
CCN(CC)c1nc(C(N)=O)cc(-c2ccc(OC)cc2OC)n1 [Compound 172] | +++ (+++ corresponds to Efficacy greater than 100) | 1 to 5 µM
COc1cccc(-c2cc(C(N)=O)nc(NCc3ccco3)n2)c1 [Compound 173] | ++ (++ corresponds to Efficacy between 100 and 50) | > 5 µM
CCN(CC)c1nc(C(N)=O)cc(-c2cnc(OC)nc2OC)n1 [Compound 174] | ++ (++ corresponds to Efficacy between 100 and 50) | > 5 µM
Cc1cc(-c2cc(C(N)=O)nc(N3CCCCC3)n2)ccc1F [Compound 175] | ++ (++ corresponds to Efficacy between 100 and 50) | > 5 µM
COc1ccc(-c2cc(C(N)=O)nc(NCc3ccco3)n2)cc1 [Compound 176] | ++ (++ corresponds to Efficacy between 100 and 50) | > 5 µM
CCN(CC)C(=O)C1CCCN(c2nc(C(N)=O)cc(-c3ccccc3)n2)C1 (stereo not shown) [Compound 177] | ++ (++ corresponds to Efficacy between 100 and 50) | > 5 µM
C=CCNc1nc(C(N)=O)cc(-c2ccccc2OC)n1 [Compound 178] | +++ (+++ corresponds to Efficacy greater than 100) | 1 to 5 µM
CNc1nc(C(N)=O)cc(-c2ccccc2)n1 [Compound 179] | + (+ corresponds to Efficacy less than 50) | > 5 µM
N#CC1(c2ccccc2)CCN(c2nc(C(N)=O)cc(-c3ccccc3)n2)CC1 [Compound 180] | ++ (++ corresponds to Efficacy between 100 and 50) | > 5 µM
NC(=O)c1cc(-c2ccccc2)nc(N2CCC(CCO)CC2)n1 [Compound 181] | ++ (++ corresponds to Efficacy between 100 and 50) | > 5 µM
NC(=O)c1cc(-c2ccc(OC(F)(F)F)cc2)nc(N2CCCCC2)n1 [Compound 182] | + (+ corresponds to Efficacy less than 50) | 1 to 5 µM
NC(=O)c1cc(-c2ccccc2)nc(N2CCC2)n1 [Compound 183] | ++ (++ corresponds to Efficacy between 100 and 50) | > 5 µM
CCN(CC)c1nc(C(N)=O)cc(-c2ccc(CC(C)C)cc2)n1 [Compound 184] | ++ (++ corresponds to Efficacy between 100 and 50) | < 1 µM
NC(=O)c1cc(-c2cccc(C(F)(F)F)c2)nc(N2CCCCC2)n1 [Compound 185] | + (+ corresponds to Efficacy less than 50) | > 5 µM
CCCCCN(C)c1nc(C(N)=O)cc(-c2ccccc2)n1 [Compound 186] | +++ (+++ corresponds to Efficacy greater than 100) | 1 to 5 µM
COc1ccc(C2(CNc3nc(C(N)=O)cc(-c4ccccc4)n3)CCCC2)cc1OC [Compound 187] | ++ (++ corresponds to Efficacy between 100 and 50) | 1 to 5 µM
